This is an account of results in patent publication US20250009885A1, “INJECTABLE PHARMACEUTICAL FORMULATIONS OF LEFAMULIN” (NABRIVA THERAPEUTICS GMBH, priority 2015, published 2025).

A value given as a limit tells only on which side of the number the result lay.

Holding throughout (format): physicochemical
Data set [1] in a line: Solubility of BC-3781 acetate in various media. An excerpt: The solubility of BC-3781 acetate in various media is as follows: […]
The nature of data set [2]: Stability at physiological pH. The conditions noted are these: pH 6.8 to 7.4. An excerpt:
Reported local tolerability issues are often linked to insufficient solubity of the compound at physiological pH which, however, is not the case for BC-3781.

The nature of another data set: pKa value measured.

In general, solubility refers to the concentration that dissolves in the medium under given conditions. Take `C=C[C@]1(C)C[C@@H](OC(=O)CS[C@@H]2CC[C@@H](N)C[C@H]2O)[C@]2(C)[C@H](C)CC[C@]3(CCC(=O)[C@H]32)[C@@H](C)[C@@H]1O` [BC-3781 acetate, 14-O-{[(1R, 2R, 4R)-4-amino-2-hydroxy-cyclohexylsulfanyl]-acetyl}-mutilin]: the solubility in data set [1] (aqueous buffer, pH 7.4 (300 mM phosphate buffer)) is no less than 100 mg/mL; in data set [1] (water), no less than 100 mg/mL.

As usually defined, the pKa is the negative logarithm of the acid dissociation constant. Turning to `C=C[C@]1(C)C[C@@H](OC(=O)CS[C@@H]2CC[C@@H](N)C[C@H]2O)[C@]2(C)[C@H](C)CC[C@]3(CCC(=O)[C@H]32)[C@@H](C)[C@@H]1O` [BC-3781, 14-O-{[(1R, 2R, 4R)-4-amino-2-hydroxy-cyclohexylsulfanyl]-acetyl}-mutilin], in data set [2], the “Stability at physiological pH” value is “excellent stability”. In “pKa value measured”, this compound gave a pKa of 9.41.
